Reference: patent US11174248B2, “Indazolyl-spiro[2.3]hexane-carbonitrile derivatives as LRRK2 inhibitors, pharmaceutical compositions, and uses thereof” (Merck Sharp & Dohme Corp., priority 2017, dated 2021)

The compounds below were run against GST-tagged truncated human mutant G2019S LRRK2 (Homo sapiens (Human), UniProt Q5S007, G2019S) (assay: LRRK2 Km ATP LanthaScreen Assay). Settings: 134 μM ATP (Km ATP); fluorescein-labeled LRRKtide substrate; mean IC50 values.
Type: biochemical
Procedure: Unless otherwise noted, all LRRK2 IC50 data presented in tables refers to the LRRK2 Km ATP LanthaScreen™ Assay that is described in the Biological Assay section.
Biological Assay: LRRK2 Km ATP LanthaScreen™ Assay
The LRRK2 kinase activity reported herein as IC50 values was determined with LanthaScreen™ technology from Life Technologies Corporation (Carlsbad, Calif.) using GST-tagged truncated human mutant G2019S LRRK2 in the presence of the fluorescein-labeled peptide substrate LRRKtide, also from Life Technologies. The data presented for the Km ATP LanthaScreen™ Assay represents mean IC50 values based on several test results and may have reasonable deviations depending on the specific conditions and reagents used. Assays were performed in the presence of 134 μM ATP (Km ATP). Upon completion, the assay was stopped and phosphorylated substrate detected with a terbium (Tb)-labeled anti-pERM antibody (cat. no. PV4898). The compound dose response was prepared by diluting a 10 mM stock of compound to a maximum concentration of 9.99 μM in 100% dimethylsulfoxide followed by custom fold serial dilution in dimethylsulfoxide nine times. Twenty nanoliters of each dilution was spotted via a Labcyte Echo onto a 384-well black-sided plate (Corning 3575) followed by 15 μl of a 1.25 nM enzyme solution in 1× assay buffer (50 mM Tris pH 8.5, 10 mM MgCl2, 0.01% Brij-35, 1 mM EGTA, 2 mM dithiothreitol, 0.05 mM sodium orthovanadate) Following a 15-minute incubation at room temperature, the kinase reaction was started with the addition of 5 μl of 400 nM fluorescein-labeled LRRKtide peptide substrate and 134 μM ATP solution in 1× assay buffer. The reaction was allowed to progress at ambient temperature for 90 minutes. The reaction was then stopped by the addition of 20 μl of TR-FRET Dilution Buffer (Life Technologies, Carlsbad, Calif.) containing 2 nM Tb-labeled anti-phospho LRRKtide antibody and 10 mM EDTA (Life Technologies, Carlsbad, Calif.). After an incubation of 1 hour at room temperature, the plate was read on an EnVision multimode plate reader (Perkin Elmer, Waltham, Mass.) with an excitation wavelength of 337 nm (Laser) and a reading emission at both 520 and 495 nm. Compound IC50s were interpolated from nonlinear regression best fits of the log of the final compound concentration, plotted as a function of the 520/495-nm emission ratio using Activity base. Abase uses a 4 parameter (4P) logistic fit based on the Levenberg-Marquardt algorithm.

Sequence of GST-tagged truncated human mutant G2019S LRRK2 (Q5S007 970-2527 G2019S): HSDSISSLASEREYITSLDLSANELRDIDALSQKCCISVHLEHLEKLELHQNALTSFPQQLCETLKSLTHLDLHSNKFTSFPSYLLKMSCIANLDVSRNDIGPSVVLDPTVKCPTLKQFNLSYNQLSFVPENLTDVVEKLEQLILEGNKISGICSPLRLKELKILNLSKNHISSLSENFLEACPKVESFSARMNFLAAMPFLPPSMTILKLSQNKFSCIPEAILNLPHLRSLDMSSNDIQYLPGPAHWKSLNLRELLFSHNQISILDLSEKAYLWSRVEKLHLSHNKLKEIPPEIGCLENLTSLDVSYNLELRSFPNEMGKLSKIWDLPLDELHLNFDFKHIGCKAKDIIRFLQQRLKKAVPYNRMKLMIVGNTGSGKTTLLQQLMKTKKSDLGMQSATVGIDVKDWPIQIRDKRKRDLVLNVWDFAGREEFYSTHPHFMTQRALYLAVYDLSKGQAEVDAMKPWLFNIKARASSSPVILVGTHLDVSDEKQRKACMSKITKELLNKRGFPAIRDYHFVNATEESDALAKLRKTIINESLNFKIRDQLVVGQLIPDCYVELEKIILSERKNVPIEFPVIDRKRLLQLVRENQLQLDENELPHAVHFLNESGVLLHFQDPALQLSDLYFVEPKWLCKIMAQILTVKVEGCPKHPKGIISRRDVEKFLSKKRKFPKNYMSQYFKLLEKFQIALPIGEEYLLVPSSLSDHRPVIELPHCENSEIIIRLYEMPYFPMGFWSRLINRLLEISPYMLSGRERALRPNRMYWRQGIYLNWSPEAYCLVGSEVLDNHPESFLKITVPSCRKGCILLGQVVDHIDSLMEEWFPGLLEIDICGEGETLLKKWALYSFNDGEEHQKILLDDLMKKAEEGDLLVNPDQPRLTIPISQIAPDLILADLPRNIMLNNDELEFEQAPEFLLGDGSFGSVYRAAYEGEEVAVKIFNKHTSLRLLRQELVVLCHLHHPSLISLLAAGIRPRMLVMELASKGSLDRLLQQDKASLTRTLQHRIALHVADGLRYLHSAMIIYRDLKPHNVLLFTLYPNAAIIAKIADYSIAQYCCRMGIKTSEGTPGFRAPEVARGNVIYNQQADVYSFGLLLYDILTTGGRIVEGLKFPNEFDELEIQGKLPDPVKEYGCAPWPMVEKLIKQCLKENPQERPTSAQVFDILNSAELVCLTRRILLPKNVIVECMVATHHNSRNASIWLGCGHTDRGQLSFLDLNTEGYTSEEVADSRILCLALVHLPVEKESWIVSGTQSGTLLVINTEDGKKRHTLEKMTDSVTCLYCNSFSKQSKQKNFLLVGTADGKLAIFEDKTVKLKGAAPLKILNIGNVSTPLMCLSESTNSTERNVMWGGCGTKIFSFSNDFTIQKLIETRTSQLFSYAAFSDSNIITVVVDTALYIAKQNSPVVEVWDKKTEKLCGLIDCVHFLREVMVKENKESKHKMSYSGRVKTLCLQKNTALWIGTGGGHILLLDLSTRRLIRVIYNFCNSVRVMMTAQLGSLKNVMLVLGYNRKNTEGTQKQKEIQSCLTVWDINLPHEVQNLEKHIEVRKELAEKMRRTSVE

Structure (SMILES) | IC50 [nM]
CN1CCN(c2cc(-n3ncc4ccc(C5(C#N)CC6(CC6)C5)cc43)ncn2)CC1CO (single isomer, unassigned) [Example 15, 5-(1-(6-(3-(hydroxymethyl)-4-methylpiperazin-1-yl)pyrimidin-4-yl)-1H-indazol-6-yl)spiro[2.3]hexane-5-carbonitrile] | 3.8
CN1CCN(c2cc(-n3ncc4ccc(C5(C#N)CC6(CC6)C5)cc43)ncn2)CC1CO (single isomer, unassigned) [Example 16, 5-(1-(6-(3-(hydroxymethyl)-4-methylpiperazin-1-yl)pyrimidin-4-yl)-1H-indazol-6-yl)spiro[2.3]hexane-5-carbonitrile] | 1.2
CC(C)(O)C1CN(c2cc(-n3ncc4ccc(C5(C#N)CC6(CC6)C5)cc43)ncn2)CC1F (single isomer, unassigned) [Example 22, 5-(1-(6-(3-fluoro-4-(2-hydroxypropan-2-yl)pyrrolidin-1-yl)pyrimidin-4-yl)-1H-indazol-6-yl)spiro[2.3]hexane-5-carbonitrile] | 3.7
CC(C)(O)C1CN(c2cc(-n3ncc4ccc(C5(C#N)CC6(CC6)C5)cc43)ncn2)CC1F (single isomer, unassigned) [Example 23, 5-(1-(6-(3-fluoro-4-(2-hydroxypropan-2-yl)pyrrolidin-1-yl)pyrimidin-4-yl)-1H-indazol-6-yl)spiro[2.3]hexane-5-carbonitrile] | 4.6
C[C@H]1CN(c2cc(-n3ncc4ccc(C5(C#N)CC6(CC6)C5)cc43)ncn2)CCN1C1CCOC1 (single isomer, unassigned) [Example 34] | 0.9
C[C@H]1CN(c2cc(-n3ncc4ccc(C5(C#N)CC6(CC6)C5)cc43)ncn2)CCN1C1CCOC1 (single isomer, unassigned) [Example 35] | 3.5
CC1C(C(C)(C)O)CCN1c1cc(-n2ncc3ccc(C4(C#N)CC5(CC5)C4)cc32)ncn1 (single isomer, unassigned) [Example 36, 5-(1-(6-(3-(2-hydroxypropan-2-yl)-2-methylpyrrolidin-1-yl)pyrimidin-4-yl)-1H-indazol-6-yl)spiro[2.3]hexane-5-carbonitrile] | 3.2
CC1C(C(C)(C)O)CCN1c1cc(-n2ncc3ccc(C4(C#N)CC5(CC5)C4)cc32)ncn1 (single isomer, unassigned) [Example 37, 5-(1-(6-(3-(2-hydroxypropan-2-yl)-2-methylpyrrolidin-1-yl)pyrimidin-4-yl)-1H-indazol-6-yl)spiro[2.3]hexane-5-carbonitrile] | 138
CC1C(C(C)(C)O)CCN1c1cc(-n2ncc3ccc(C4(C#N)CC5(CC5)C4)cc32)ncn1 (single isomer, unassigned) [Example 38, 5-(1-(6-(3-(2-hydroxypropan-2-yl)-2-methylpyrrolidin-1-yl)pyrimidin-4-yl)-1H-indazol-6-yl)spiro[2.3]hexane-5-carbonitrile] | 59
CC1C(C(C)(C)O)CCN1c1cc(-n2ncc3ccc(C4(C#N)CC5(CC5)C4)cc32)ncn1 (single isomer, unassigned) [Example 39, 5-(1-(6-(3-(2-hydroxypropan-2-yl)-2-methylpyrrolidin-1-yl)pyrimidin-4-yl)-1H-indazol-6-yl)spiro[2.3]hexane-5-carbonitrile] | 1.2
CN1CCOC2CN(c3cc(-n4ncc5ccc(C6(C#N)CC7(CC7)C6)cc54)ncn3)CC21 (single isomer, unassigned) [Example 40, 5-(1-(6-(4-methylhexahydropyrrolo[3,4-b][1,4]oxazin-6(2H)-yl)pyrimidin-4-yl)-1H-indazol-6-yl)spiro[2.3]hexane-5-carbonitrile] | 0.9
CN1CCOC2CN(c3cc(-n4ncc5ccc(C6(C#N)CC7(CC7)C6)cc54)ncn3)CC21 (single isomer, unassigned) [Example 41] | 1.2
CC1CC12CC(C#N)(c1ccc3cnn(-c4cc(N5CCN6CCOC[C@@H]6C5)ncn4)c3c1)C2 (single isomer, unassigned) [Example 50] | 4.4
CC1CC12CC(C#N)(c1ccc3cnn(-c4cc(N5CCN6CCOC[C@@H]6C5)ncn4)c3c1)C2 (single isomer, unassigned) [Example 51] | 9.8
CC1CC12CC(C#N)(c1ccc3cnn(-c4cc(N5CCN6CCOC[C@@H]6C5)ncn4)c3c1)C2 (single isomer, unassigned) [Example 52] | 2.4
CC1C2(CC2)CC1(C#N)c1ccc2cnn(-c3cc(N4CCN5CCOC[C@@H]5C4)ncn3)c2c1 (single isomer, unassigned) [Example 53] | 7.9
CC1C2(CC2)CC1(C#N)c1ccc2cnn(-c3cc(N4CCN5CCOC[C@@H]5C4)ncn3)c2c1 (single isomer, unassigned) [Example 54] | 1.7
CC1C2(CC2)CC1(C#N)c1ccc2cnn(-c3cc(N4CCN5CCOC[C@@H]5C4)ncn3)c2c1 (single isomer, unassigned) [Example 55] | 34
CC1C2(CC2)CC1(C#N)c1ccc2cnn(-c3cc(N4CCN5CCOC[C@@H]5C4)ncn3)c2c1 (single isomer, unassigned) [Example 56] | 3
N#CC1(c2ccc3cnn(-c4cc(N5CC[C@@H](O)[C@@H](F)C5)ncn4)c3c2)CC2(CC2)C1 [Example 1, 5-(1-(6-((3S,4R)-3-fluoro-4-hydroxypiperidin-1-yl)pyrimidin-4-yl)-1H-indazol-6-yl)spiro[2.3]hexane-5-carbonitrile] | 4.4
Cc1nc(N2CC[C@H](O)[C@@H](F)C2)cc(-n2ncc3ccc(C4(C#N)CC5(CC5)C4)cc32)n1 [Example 2, 5-(1-(6-((3S,4S)-3-fluoro-4-hydroxypiperidin-1-yl)-2-methylpyrimidin-4-yl)-1H-indazol-6-yl)spiro[2.3]hexane-5-carbonitrile] | 5.1
Cc1nc(N2CC[C@H](O)[C@H](F)C2)cc(-n2ncc3ccc(C4(C#N)CC5(CC5)C4)cc32)n1 [Example 3, 5-(1-(6-((3R,4S)-3-fluoro-4-hydroxypiperidin-1-yl)-2-methylpyrimidin-4-yl)-1H-indazol-6-yl)spiro[2.3]hexane-5-carbonitrile] | 18
Cc1nc(N2CC[C@@H](O)[C@@H](F)C2)cc(-n2ncc3ccc(C4(C#N)CC5(CC5)C4)cc32)n1 [Example 4, 5-(1-(6-((3S,4R)-3-fluoro-4-hydroxypiperidin-1-yl)-2-methylpyrimidin-4-yl)-1H-indazol-6-yl)spiro[2.3]hexane-5-carbonitrile] | 7.4
Cc1nc(N2CC3(C(C)(C)O)CC2C3)cc(-n2ncc3ccc(C4(C#N)CC5(CC5)C4)cc32)n1 [Example 5, 5-(1-(6-(4-(2-hydroxypropan-2-yl)-2-azabicyclo[2.1.1]hexan-2-yl)-2-methylpyrimidin-4-yl)-1H-indazol-6-yl)spiro[2.3]hexane-5-carbonitrile] | 12.3
N#CC1(c2ccc3cnn(-c4cc(N5CC[C@H](O)[C@@H](F)C5)ncn4)c3c2)CC2(CC2)C1 [Example 6, 5-(1-(6-((3S,4S)-3-fluoro-4-hydroxypiperidin-1-yl)pyrimidin-4-yl)-1H-indazol-6-yl)spiro[2.3]hexane-5-carbonitrile] | 6.2
N#CC1(c2ccc3cnn(-c4cc(N5CC6(CO)CC5C6)ncn4)c3c2)CC2(CC2)C1 [Example 7, 5-(1-(6-(4-(hydroxymethyl)-2-azabicyclo[2.1.1]hexan-2-yl)pyrimidin-4-yl)-1H-indazol-6-yl)spiro[2.3]hexane-5-carbonitrile] | 1.5
N#CC1(c2ccc3cnn(-c4cc(N5CC[C@@H](CO)C5)ncn4)c3c2)CC2(CC2)C1 [Example 8, (R)-5-(1-(6-(3-(hydroxy-methyl)pyrrolidin-1-yl)pyrimidin-4-yl)-1H-indazol-6-yl)spiro[2.3]hexane-5-carbonitrile] | 2.9
COCC12CC(C1)N(c1cc(-n3ncc4ccc(C5(C#N)CC6(CC6)C5)cc43)ncn1)C2 [Example 9, 5-(1-(6-(4-(methoxymethyl)-2-azabicyclo[2.1.1]hexan-2-yl)pyrimidin-4-yl)-1H-indazol-6-yl)spiro[2.3]hexane-5-carbonitrile] | 9.3
Cc1nc(N2CC[C@@H](C(C)(C)O)C2)cc(-n2ncc3ccc(C4(C#N)CC5(CC5)C4)cc32)n1 [Example 10, (R)-5-(1-(6-(3-(2-hydroxypropan-2-yl)pyrrolidin-1-yl)-2-methylpyrimidin-4-yl)-1H-indazol-6-yl)spiro[2.3]hexane-5-carbonitrile] | 3.8
